One data set has as its system human neutrophils. The experiment in a line: Inhibition by Compound A of PAF-induced adhesion-aggregation of human neutrophils (Impedance method). As to conditions: Neutrophil, 10 μM Compound A, 0.02 μM, read-out: Inhibition ratio. It counts as cell-based. The method, then:
(§1) Blood was taken from median cubital vein or cephalic vein of normal men aged of 29 to 40, who had taken no anti-inflammatory drug at least for the last 10 days before testing, into a syringe containing 0.1 volume of 40 U/ml heparin aqueous solution (a product of Green Cross Corp., Japan).
10 ml of the blood obtained above was mixed with 3 ml of a 4.5% dextran aqueous solution, and the mixture was allowed to stand for 1 hour at room temperature. The supernatant was taken and centrifuged at 250 X g for 7 minutes. The precipitate was taken, and 3 ml of 0.2% sodium chloride aqueous solution was added thereto to lyse the red blood cells. The mixture was allowed to stand for 75 seconds and 7 ml of a 1.2% sodium chloride aqueous solution was added thereto. […] It was confirmed that the surviving ratio of nuetrophil in the resulting suspension was over 95% as determined by the trypan blue staining method. […]
5 μl of saline solution of Compound A prepared in 1-4 was added to 1 ml of the whole blood, neutrophil suspension or PRP and an electrode was dipped thereinto. […] 4 minutes later, the variation in impedance (Δ.OMEGA.) was determined using Chrono-log aggregometer (540 type, a product of Chrono-log Co., Ltd). […] As a control, saline was used instead of saline solution of Compound A and the aggregation was determined as described above.

A further data set concerns blood glucose level. As to conditions: as disclosed in U.S. Pat. No. 4,138,491; cited from earlier work.
For a further data set, the system named is platelet aggregation. The settings on record: as disclosed in U.S. Pat. No. 4,138,491; cited from earlier work.
Data set [1] deals with human platelet aggregation. Nature of the data set: Inhibition by Compound A of PAF-induced human platelet aggregation. It counts as cell-based. The protocol: as §1
The blood obtained in (1) was centrifuged at 190 X g for 7 minutes. The supernatant was taken to obtain the platelets rich plasma (hereinafter, PRP). Platelet counter (a product of Toa Co., Ltd) was used to count the number of platelets.
(§2) Compound A was dissolved in a saline, and the solution obtained was used in the experiment.
(§3) As an aggregation inducing agent, an aqueous solution prepared by dissolving epinephrine or a platelet activating factor (hereinafter, PAF) in 25 mM Tris HCl-130 mM NaCl aqueous solution (pH 7.4) was used in the experiment.
(§4) 5 μl of saline solution of Compound A prepared in 1-4 was added to 1 ml of the whole blood, neutrophil suspension or PRP and an electrode was dipped thereinto. The mixture obtained was incubated for 2 minutes under the conditions that the temperature in cell was 37° C. and the stirring rate was 1000 r.p.m., and then 20 μl of aggregation inducing agent was added to the mixture. 4 minutes later, the variation in impedance (Δ.OMEGA.) was determined using Chrono-log aggregometer (540 type, a product of Chrono-log Co., Ltd). The intensity of the variation gave the aggregation activity. In determining the aggregation of neutrophils, 5 μg/ml of cytochalasin B was added to the incubated mixture, one minute prior to the addition of PAF solution. As a control, saline was used instead of saline solution of Compound A and the aggregation was determined as described above.

The test system of data set [2] is human whole blood aggregation. The experiment in a line: Inhibition by Compound A of human whole blood aggregation (Impedance method). It counts as cell-based. The protocol: as §1, §2, §3, §4
Data set [3] concerns human neutrophil aggregation. The experiment in a line: Inhibition by Compound A of PAF-induced human neutrophil aggregation (Optical method). It counts as cell-based. The protocol:
as §1
10 ml of the blood obtained above was mixed with 3 ml of a 4.5% dextran aqueous solution, and the mixture was allowed to stand for 1 hour at room temperature. The supernatant was taken and centrifuged at 250 X g for 7 minutes. The precipitate was taken, and 3 ml of 0.2% sodium chloride aqueous solution was added thereto to lyse the red blood cells. The mixture was allowed to stand for 75 seconds and 7 ml of a 1.2% sodium chloride aqueous solution was added thereto. The mixture was centrifuged at 250 X g for 7 minutes to obtain the precipitate which contained mainly neutrophils. When the red blood cell was not sufficiently removed, the above procedure for lysis of red blood cell was repeated. The precipitate was washed with 10 ml of a phosphate buffer solution containing 0.5% glucose (hereinafter, PBSG), and the mixture was centrifuged at 250 X g for 7 minutes to take the precipitate. The above washing procedure was repeated twice, and the precipitate obtained was added to PBSG or PBSG containing 0.5% human serum albumin to obtain the neutrophil suspension. It was confirmed that the surviving ratio of nuetrophil in the resulting suspension was over 95% as determined by the trypan blue staining method. A blood cell counter (a product of Nihon Koden Co., Ltd) was used to count the number of neutrophils. The mixture was preserved at 4° C. before use. […]
5 μl of saline solution of Compound A prepared in 1-4) was added to 1 ml of neutrophil suspension and the mixture was incubated for 2 minutes under the conditions that the temperature in cell was 37° C. and the stirring rate was 1,000 r.p.m. […] The aggregation was determined optically using the Chrono-log aggregometer. As a control, saline was used instead of saline solution of Compound A and the aggregation was determined as described above.

The next data set relates to diabetic retinopathy. The experiment in a line: Clinical trial in patients having diabetic retinopathy, funduscopic observation. It counts as in vivo, human. Also noted: key to Funduscopic observation: microaneurysms / Funduscopic observation: dot hemorrhage: +: observed; ±: slightly observed; -: not observed. The settings on record: 300 to 900 mg daily orally; for Funduscopic observation: microaneurysms / Funduscopic observation: dot hemorrhage: + + at start. The protocol: Compound A was administered orally at dose of 300 to 900 mg daily to patients having diabetic retinopathy for a period of a month to about 2 years. Microaneurysms, dot hemorrhage, retina edema, hard exudate, arterialization and maculopathy in Fundus oculi, which were indications for retinopathy, were investigated using a funduscope.

Data set [4] in a line: Acute toxicity (LD50) in rats, oral. As to conditions: rat, in vivo, administered orally.
Another data set has as its system retinal vesseles. The settings on record: injected into retinal artery of rabbit; cited from earlier work.
Setting [5] is: patient B, left eye, 116 weeks after administration.
The mark [6] stands for this setting: patient B, right eye, 116 weeks after administration.

The term IC50 denotes the concentration that inhibits the measured activity by half. Broadly, the LD50 is the dose expected to kill half of the subjects tested.

SMILES strings stand for the structures. Where “and” joins values, the source holds several entries; their conditions need not be identical. Equal values may be shown once. Read-outs that look alike come from different tables or passages of the source.

For the compound `c1ccc(C(CC2=NCCN2)c2ccccn2)cc1` (stereo not drawn) [Compound A, 2-(2-phenyl-2-(2-pyridyl))ethyl-2-imidazoline], the inhibition at 10 µM turned out to be 59% with human neutrophils; 0% in data set [1] (Homo sapiens, Platelet, 10 μM Compound A, PAF, 2 μM, read-out: Inhibition ratio); 83% in data set [3] (Homo sapiens, Neutrophil, 10 μM Compound A, PAF, 2 μM, optical method, read-out: inhibition ratio). In addition, the “blood glucose level” value in the data set on blood glucose level is on record as “reduces the blood glucose level”. The “platelet aggregation” value with platelet aggregation was “inhibits platelet aggregation”. Also, the inhibition at 50 µM in data set [1] (Homo sapiens, Platelet, 50 μM Compound A, PAF, 2 μM, read-out: Inhibition ratio) is 45%. Moreover, the inhibition at 100 µM in data set [1] (Homo sapiens, Platelet, 100 μM Compound A, PAF, 2 μM, read-out: Inhibition ratio) is 82%. Also, in data set [1] (low versus high concentration), the “PAF-induced human platelet aggregation” value was “did not inhibit PAF-induced human platelet aggregation at a low concentration but did at a high concentration”. The IC50 in [2] (Homo sapiens, in vitro, Epinephrine (2 μM), individual values of n = 3, read-out: IC50) was 5.6 µM; in [2] (Homo sapiens, in vitro, Epinephrine (2 μM), n = 3, read-out: IC50, average ± s.d.) it was 5.2 ± 0.7 µM; in [2] (Homo sapiens, induced by PAF (0.02 μM), n=3, read-out: IC50, average), 2.8 µM; in [2] (Homo sapiens, induced by epinephrine (2 μM), n=3, read-out: IC50) it was around 5 µM; in data set [2] (in vitro, Epinephrine (2 μM), individual values of n = 3, read-out: IC50), 4.2 µM and 5.8 µM; in data set [2] (in vitro, PAF (0.02 μM), individual values of n = 3, read-out: IC50) it was 1.8 µM and 4.6 µM. Further, in data set [3] (Homo sapiens, Neutrophil, 5 μM Compound A, PAF, 2 μM, optical method, read-out: inhibition ratio), the inhibition at 5 µM was found to be 68%. In addition, the “PAF-induced human neutrophil aggregation” value in [3] (at low concentration) was “inhibited the PAF-induced human neutrophil aggregation at low concentration”. Also, the “microaneurysms and dot hemorrhage” value in the data set on diabetic retinopathy (3 patients) was “disappearance or reduction of microaneurysms and dot hemorrhage were observed”. Moreover, the “Funduscopic observation: microaneurysms” value is listed as “-” with diabetic retinopathy (patient A, left eye, 58 weeks after administration); “-” with diabetic retinopathy (patient A, right eye, 58 weeks after administration); “-” with diabetic retinopathy (setting [5]); “-” in the data set on diabetic retinopathy (setting [6]). For the same compound, the “Funduscopic observation: dot hemorrhage” value in the data set on diabetic retinopathy (setting [5]) was “-”; in the data set on diabetic retinopathy (setting [6]) it was “-”; in the data set on diabetic retinopathy (patient C, left eye, 109 weeks after administration) it was “±”; with diabetic retinopathy (patient C, right eye, 109 weeks after administration) it was “±”. Besides, the LD50 in [4] worked out at 867 mg/kg.

For `CCCCCCCCCCCCCCCCOCC(COP(=O)([O-])OCC[N+](C)(C)C)OC(C)=O` (stereo not drawn) [PAF], the “state of retinal vessels” value in the data set with retinal vesseles is recorded as “a sludge-like state is observed in retinal vesseles”.

Source of the values: US4746668A, “Method for treating retinopathy” (Daiichi Seiyaku Co., Ltd., priority 1986, dated 1988).
